Source: ChEMBL document CHEMBL1201862, “PubChem BioAssay data set” (2004)
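Cells were grown in 96-well plates and exposed to each compound for 48 hours at five concentrations; endpoints were interpolated linearly between bracketing concentrations, or set to the highest concentration if not reached. GI50 is the concentration that inhibits growth by half.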 Active and inactive are the calls of the source. Cut-off read from the data, not from the text of the source: active = GI50 up to about 1.1 µM and inactive = higher.

Legend:
Assay in all cases: NCI anticancer screen, dose series, 48 h
HOP-62 = system: HOP-62
Malme-3M = system: Malme-3M
786-0 = system: 786-0
ACHN = system: ACHN
TK-10 = system: TK-10
KM-20L2 = system: KM-20L2
SN12C = system: SN12C
SNB-19 = system: SNB-19
HOP-92 = system: HOP-92
COLO 205 = system: COLO 205
LXFL 529 = system: LXFL 529
LOX IMVI = system: LOX IMVI
NCI-H23 = system: NCI-H23
OVCAR-4 = system: OVCAR-4
NCI-H226 = system: NCI-H226
K562 = system: K562
MOLT-4 = system: MOLT-4
SNB-78 = system: SNB-78
RPMI-8226 = system: RPMI-8226
OVCAR-8 = system: OVCAR-8
HCT-15 = system: HCT-15
SK-MEL-2 = system: SK-MEL-2
OVCAR-5 = system: OVCAR-5
CAKI-1 = system: CAKI-1
SF-268 = system: SF-268
M19-MEL = system: M19-MEL
HOP-18 = system: HOP-18
UACC-257 = system: UACC-257
HCT-116 = system: HCT-116
UACC-62 = system: UACC-62
SR = system: SR
U-251 = system: U-251
A549 = system: A549
SW-620 = system: SW-620
HL-60 = system: HL-60
SF-539 = system: SF-539
IGROV-1 = system: IGROV-1
SK-OV-3 = system: SK-OV-3
RXF 393 = system: RXF 393
CCRF-CEM = system: CCRF-CEM
EKVX = system: EKVX
HT-29 = system: HT-29
UO-31 = system: UO-31
RXF 631 = system: RXF 631
NCI-H460 = system: NCI-H460
OVCAR-3 = system: OVCAR-3
SF-295 = system: SF-295
M14 = system: M14
DMS-114 = system: DMS-114
DLD-1 = system: DLD-1
SNB-75 = system: SNB-75
HCC 2998 = system: HCC 2998
KM12 = system: KM12
NCI-H522 = system: NCI-H522
A498 = system: A498
SK-MEL-5 = system: SK-MEL-5
SK-MEL-28 = system: SK-MEL-28
DMS-273 = system: DMS-273

Structure (SMILES): COc1cc2cc(OC)c3cc4c(cc3c2c(OC)c1OC)OCO4
- GI50 (HOP-62): 42.6 µM (inactive)
- GI50 (Malme-3M): 52.4 µM (inactive)
- GI50 (786-0): 27.9 µM (inactive)
- GI50 (ACHN): 52.5 µM (inactive)
- GI50 (TK-10): 48.3 µM (inactive)
- GI50 (KM-20L2): 11.6 µM (inactive)
- GI50 (SN12C): > 69.3 µM (inactive)
- GI50 (SNB-19): > 100 µM (inactive)
- GI50 (HOP-92): > 46 µM (inactive)
- GI50 (COLO 205): 19.6 µM (inactive)
- GI50 (LXFL 529): 31.3 µM (inactive)
- GI50 (LOX IMVI): 15.5 µM (inactive)
- GI50 (NCI-H23): 39.8 µM (inactive)
- GI50 (OVCAR-4): 39.4 µM (inactive)
- GI50 (NCI-H226): > 100 µM (inactive)
- GI50 (K562): 9.46 µM (inactive)
- GI50 (MOLT-4): 22.8 µM (inactive)
- GI50 (SNB-78): 50.2 µM (inactive)
- GI50 (RPMI-8226): 14.7 µM (inactive)
- GI50 (OVCAR-8): > 59.4 µM (inactive)
- GI50 (HCT-15): 12.8 µM
- GI50 (SK-MEL-2): 71 µM (inactive)
- GI50 (OVCAR-5): 25.2 µM (inactive)
- GI50 (CAKI-1): 33 µM (inactive)
- GI50 (SF-268): > 51.1 µM (inactive)
- GI50 (M19-MEL): 20.8 µM (inactive)
- GI50 (HOP-18): 67.6 µM (inactive)
- GI50 (UACC-257): 34.9 µM (inactive)
- GI50 (HCT-116): 38.2 µM (inactive)
- GI50 (UACC-62): 19.3 µM (inactive)
- GI50 (SR): 18.5 µM (inactive)
- GI50 (U-251): 20.8 µM (inactive)
- GI50 (A549): 44.6 µM (inactive)
- GI50 (SW-620): 18.6 µM (inactive)
- GI50 (HL-60): 15.3 µM (inactive)
- GI50 (SF-539): 31.6 µM (inactive)
- GI50 (IGROV-1): > 66.8 µM (inactive)
- GI50 (SK-OV-3): > 64.9 µM (inactive)
- GI50 (RXF 393): 42.9 µM (inactive)
- GI50 (CCRF-CEM): 15 µM (inactive)
- GI50 (EKVX): 50.6 µM (inactive)
- GI50 (HT-29): 10.9 µM (inactive)
- GI50 (UO-31): 29.4 µM (inactive)
- GI50 (RXF 631): 32.5 µM (inactive)
- GI50 (NCI-H460): 17.6 µM (inactive)
- GI50 (OVCAR-3): 41.5 µM (inactive)
- GI50 (SF-295): 28.1 µM (inactive)
- GI50 (M14): 19.7 µM (inactive)
- GI50 (DMS-114): 35.7 µM (inactive)
- GI50 (DLD-1): 18.1 µM (inactive)
- GI50 (SNB-75): 7.55 µM (inactive)
- GI50 (HCC 2998): 11 µM (inactive)
- GI50 (KM12): 14.2 µM (inactive)
- GI50 (NCI-H522): 18 µM (inactive)
- GI50 (A498): > 45.5 µM (inactive)
- GI50 (SK-MEL-5): 23.4 µM (inactive)
- GI50 (SK-MEL-28): > 39.6 µM (inactive)
- GI50 (DMS-273): 15.1 µM (inactive)
